Patent US20260344661A1, “USE OF AN ALKYLETHER SULFATE FOR IMPROVING THE EFFICACY OF HERBICIDES” (BASF SE, priority 2022, published 2026)

How the values were obtained:
[1] = system: ECHCG (barnyardgrass); assay: Greenhouse post-emergence weed control, damage vs untreated (ECHCG); type: in vivo, Echinochloa crus-galli; conditions: adjuvant g ai/ha: none (CE1-A)
Protocol: (§1) A greenhouse study was conducted to evaluate the effect of the alkylether sulfates of formula (I) and other adjuvants on the weed control efficacy of glufosinate. Seedlings of grass plants (AVEFA, ECHCG, DIGSA and SETVI) and broadleaf weeds (KCHSC, CHEAL, AMAPA, AMATA and ABUTH) were grown to a height of 3 to 20 cm, depending on the plant habit in 10×10×10 cm pots filled with sandy planting soil (Limburgerhof soil). The weeds were treated with postemergence applications of glufosinate ammonium at the respective application rates given in the following tables, either alone or combined with various amounts of the respective adjuvants.
(§2) For this, the herbicide formulation and the respective adjuvant were introduced into tap water to obtain the spray liquor. […] The spray liquor was then applied to the plant a spray volume of 200 l/ha using a sprayer (XR Teejet 110015).
(§3) The test period extended over 21 days. During this time, the plants were tended, and their response to the treatments with active compound was evaluated.
(§4) The evaluation for the damage caused by the chemical compositions was carried out using a scale from 0 to 100%, compared to the untreated control plants. Here, 0 means no damage and 100 means complete destruction of the plants.
(§5) The plants used in the greenhouse experiments belonged to the following species:
(§6) The results are summarized in the following tables 1 to 15 that show the applied doses of the individual actives as gram of active ingredient per hectare (g ai/ha), the herbicidal activity of the individual […]

[2] = system: HORVW (winter barley); assay: Greenhouse post-emergence weed control, damage vs untreated (HORVW); type: in vivo, Hordeum vulgare; conditions: 20 DAT, adjuvant g ai/ha: none (CE1-A)
[3] = system: DIGSA (large crabgrass); assay: Greenhouse post-emergence weed control, damage vs untreated (DIGSA); type: in vivo, Digitaria sanguinalis; conditions: 20 DAT, adjuvant g ai/ha: none (CE1-A)
Protocol: as §1, §2, §3, §4
(§7) The plants used in the greenhouse experiments belonged to the following species: […]

[4] = system: Øgras (average value of AVEFA, ECHCG, DIGSA and SETVI); assay: Greenhouse post-emergence weed control, average over grasses (Øgras); type: in vivo; conditions: adjuvant g ai/ha: none (CE1-A)
Protocol: as §1, §2, §3, §4, §5, §6

[5] = system: AMAPA (palmer amaranth); assay: Greenhouse post-emergence weed control, damage vs untreated (AMAPA); type: in vivo, Amaranthus palmeri; conditions: 20 DAT, adjuvant g ai/ha: none (CE1-A)
Protocol: as §1, §2, §3, §4, §5
(§8) The results are summarized in the following tables 1 to 15 that show the applied doses of the individual actives as gram of active ingredient per hectare (g ai/ha), the herbicidal activity of the individual actives and of their combinations in post-emergence application assessed 14 and 28 day after treatment (DAT), respectively.

[6] = system: KCHSC (kochia); assay: Greenhouse post-emergence weed control, damage vs untreated (KCHSC); type: in vivo, Kochia scoparia; conditions: 20 DAT, adjuvant g ai/ha: none (CE1-A)
Protocol: as §1, §2, §3, §4, §7

[7] = system: AVEFA (wild oat); assay: Greenhouse post-emergence weed control, damage vs untreated (AVEFA); type: in vivo, Avena fatua; conditions: adjuvant g ai/ha: none (CE1-A)
Protocol: as §1, §2, §3, §4, §5, §6

[8] = system: AMATA (common water hemp); assay: Greenhouse post-emergence weed control, damage vs untreated (AMATA); type: in vivo, Amaranthus tuberculatus; conditions: 20 DAT, adjuvant g ai/ha: none (CE1-A)
Protocol: as §1, §2, §3, §4, §5, §8

[9] = system: ABUTH (velvetleaf); assay: Greenhouse post-emergence weed control, damage vs untreated (ABUTH); type: in vivo, Abutilon theophrasti; conditions: 20 DAT, adjuvant g ai/ha: none (CE1-A)
Protocol: as §1, §2
[…] During this time, the plants were tended, and their response to the treatments with active compound was evaluated.
as §4, §7

[10] = system: SETVI (green foxtail); assay: Greenhouse post-emergence weed control, damage vs untreated (SETVI); type: in vivo, Setaria viridis; conditions: adjuvant g ai/ha: none (CE1-A)
Protocol: as §1, §2, §3, §4, §5, §6

[11] = system: CHEAL (lambsquarter); assay: Greenhouse post-emergence weed control, damage vs untreated (CHEAL); type: in vivo, Chenopodium album; conditions: adjuvant g ai/ha: none (CE1-A)
Protocol: as §1, §2, §3, §4, §5, §6

[12] = system: ØBLV (average value of KCHSC, CHEAL, AMAPA, AMATA and ABUTH); assay: Greenhouse post-emergence weed control, average over broadleaf weeds (ØBLV); type: in vivo; conditions: 20 DAT, adjuvant g ai/ha: none (CE1-A)
Protocol: as §1, §2, §3, §4, §5, §8

[13] = 75 g ai/ha glufosinate rac., 56 (IE1-A), 62.125 (IE1-B), 51.625 (CE2-A, CE2-B), 55.75 (CE2-C), 66.75 (CE2-D), 103.25 (CE2-E)
[14] = 150 g ai/ha glufosinate rac., 112 (IE1-A), 124.25 (IE1-B), 103.25 (CE2-A, CE2-B), 111.5 (CE2-C), 133.5 (CE2-D), 206.5 (CE2-E)
[15] = 300 g ai/ha glufosinate rac., 223 (IE1-A, CE2-C), 248.5 (IE1-B), 206.5 (CE2-A, CE2-B), 267 (CE2-D), 413 (CE2-E)
[16] = 600 g ai/ha glufosinate rac., 446 (IE1-A, CE2-C), 497 (IE1-B), 413 (CE2-A, CE2-B), 534 (CE2-D), 826 (CE2-E)

CP(=O)(O)CCC(N)C(=O)O.N (racemic) [CE1-A, ammonium (2RS)-2-amino-4-(methylphosphinato)butyric acid]
% activity [1, 13]: 0%
% activity [1, 14]: 0%
% activity [1, 15]: 0%
% activity [1, 16]: 0%
% activity [2, 13]: 0%
% activity [2, 14]: 0%
% activity [2, 15]: 0%
% activity [3, 13]: 0%
% activity [3, 14]: 0%
% activity [3, 15]: 50%
% activity [3, 16]: 80%
% activity (Øgras) [4, 13]: 21%
% activity (Øgras) [4, 14]: 24%
% activity (Øgras) [4, 15]: 40%
% activity (Øgras) [4, 16]: 51%
% activity [5, 13]: 50%
% activity [5, 14]: 98%
% activity [5, 15]: 98%
% activity [5, 16]: 98%
% activity [6, 13]: 0%
% activity [6, 14]: 0%
% activity [6, 15]: 5%
% activity [6, 16]: 20%
% activity [7, 13]: 5%
% activity [7, 14]: 0%
% activity [7, 15]: 10%
% activity [7, 16]: 25%
% activity [8, 13]: 20%
% activity [8, 14]: 98%
% activity [8, 15]: 85%
% activity [8, 16]: 98%
% activity [9, 13]: 5%
% activity [9, 14]: 20%
% activity [9, 15]: 75%
% activity [9, 16]: 60%
% activity [10, 13]: 80%
% activity [10, 14]: 95%
% activity [10, 15]: 98%
% activity [10, 16]: 98%
% activity [11, 13]: 0%
% activity [11, 14]: 0%
% activity [11, 15]: 10%
% activity [11, 16]: 10%
% activity (ØBLV) [12, 13]: 15%
% activity (ØBLV) [12, 14]: 43%
% activity (ØBLV) [12, 15]: 55%
% activity (ØBLV) [12, 16]: 57%
